The values that follow come from publication PMC5218480 (PLoS ONE, 2017).

In this assay the test system is MV-4-11 cells. As to the kind of experiment: Gene expression microarray analysis (Affymetrix PrimeView) and GSEA. Conditions: ProbeSet 11721559_s_at; LIST B. Also on record: RFU PODN (11730768_x_at) / Fold change /veh PODN (11730768_x_at) / RFU LINC00158 (11744669_a_at) / Fold change /veh LINC00158 (11744669_a_at) / RFU DUSP10 (11751237_a_at) / Fold change /veh DUSP10 (11751237_a_at) / RFU ID3 (11757404_x_at) / Fold change /veh ID3 (11757404_x_at) / RFU PLEKHG5 (11737974_s_at) / Fold change /veh PLEKHG5 (11737974_s_at) / RFU LRRC4B (11730491_at) / Fold change /veh LRRC4B (11730491_at) / RFU GIMAP4 (11747438_a_at) / Fold change /veh GIMAP4 (11747438_a_at) / RFU KRT8 (11758183_x_at) / Fold change /veh KRT8 (11758183_x_at) / RFU CNN1 (11734310_a_at) / Fold change /veh CNN1 (11734310_a_at) / RFU VPS37D (11726825_at) / Fold change /veh VPS37D (11726825_at) / RFU C10orf10 (11716522_x_at) / Fold change /veh C10orf10 (11716522_x_at) / RFU KIR2DL2 /// KIR2DL4 /// KIR2DL5A /// KIR2DL5B /// KIR2DS1 /// KIR2DS2 /// KIR2DS3 /// KIR2DS4 /// KIR3DL3 /// KIR3DL3 /// KIR3DS1 (11738374_at) / Fold change /veh KIR2DL2 /// KIR2DL4 /// KIR2DL5A /// KIR2DL5B /// KIR2DS1 /// KIR2DS2 /// KIR2DS3 /// KIR2DS4 /// KIR3DL3 /// KIR3DL3 /// KIR3DS1 (11738374_at) / RFU C1QL1 (11718748_at) / Fold change /veh C1QL1 (11718748_at) / RFU TMPRSS4 (11747572_a_at) / Fold change /veh TMPRSS4 (11747572_a_at) / RFU HAMP (11756126_x_at) / Fold change /veh HAMP (11756126_x_at) / RFU RNFT2 (11725882_a_at) / Fold change /veh RNFT2 (11725882_a_at) / RFU NR4A2 (11747474_a_at) / Fold change /veh NR4A2 (11747474_a_at) / RFU ABCC12 (11746883_a_at) / Fold change /veh ABCC12 (11746883_a_at) / RFU TMEM136 (11760407_x_at) / Fold change /veh TMEM136 (11760407_x_at) / RFU CLDN22 /// WWC2 (11732394_at) / Fold change /veh CLDN22 /// WWC2 (11732394_at) / RFU HLA-DPB1 (11760878_x_at) / Fold change /veh HLA-DPB1 (11760878_x_at) / RFU SPINT1 (11716480_a_at) / Fold change /veh SPINT1 (11716480_a_at) / RFU GAP43 (11754022_s_at) / Fold change /veh GAP43 (11754022_s_at) / RFU A4GNT (11735810_at) / Fold change /veh A4GNT (11735810_at) / RFU PRB3 (11715151_x_at) / Fold change /veh PRB3 (11715151_x_at) / RFU TUBB4B (11761932_at) / Fold change /veh TUBB4B (11761932_at) / RFU CAPN14 (11732068_a_at) / Fold change /veh CAPN14 (11732068_a_at) / RFU TMCC2 (11721928_a_at) / Fold change /veh TMCC2 (11721928_a_at) / RFU IRGQ (11745062_a_at) / Fold change /veh IRGQ (11745062_a_at) / RFU FAM174B (11720279_a_at) / Fold change /veh FAM174B (11720279_a_at) / RFU TMPRSS4 (11748680_a_at) / Fold change /veh TMPRSS4 (11748680_a_at) / RFU FAM212B (11763350_a_at) / Fold change /veh FAM212B (11763350_a_at) / RFU PLEKHG5 (11743358_a_at) / Fold change /veh PLEKHG5 (11743358_a_at) / RFU ZSCAN30 (11745921_a_at) / Fold change /veh ZSCAN30 (11745921_a_at) / RFU CMKLR1 (11741424_a_at) / Fold change /veh CMKLR1 (11741424_a_at) / RFU LOC101060620 /// MAPK8IP1 (11723275_at) / Fold change /veh LOC101060620 /// MAPK8IP1 (11723275_at) / RFU SPTSSB (11747773_x_at) / Fold change /veh SPTSSB (11747773_x_at) / RFU PRSS12 (11739890_at) / Fold change /veh PRSS12 (11739890_at) / RFU BIN1 (11741810_x_at) / Fold change /veh BIN1 (11741810_x_at) / RFU WNT11 (11732464_a_at) / Fold change /veh WNT11 (11732464_a_at) / RFU C10orf10 (11716521_a_at) / Fold change /veh C10orf10 (11716521_a_at) / RFU C5orf56 (11738089_at) / Fold change /veh C5orf56 (11738089_at) / RFU CYB561 (11721691_x_at) / Fold change /veh CYB561 (11721691_x_at) / RFU ANKRD19P (11752326_a_at) / Fold change /veh ANKRD19P (11752326_a_at) / RFU OR2T12 /// OR2T33 /// OR2T8 (11738714_s_at) / Fold change /veh OR2T12 /// OR2T33 /// OR2T8 (11738714_s_at) / RFU VCAN (11748164_a_at) / Fold change /veh VCAN (11748164_a_at) / RFU JSRP1 (11732532_at) / Fold change /veh JSRP1 (11732532_at) / RFU KRTAP10-11 (11738290_x_at) / Fold change /veh KRTAP10-11 (11738290_x_at) / RFU MYO3A (11730013_a_at) / Fold change /veh MYO3A (11730013_a_at) / RFU EBF3 (11725865_a_at) / Fold change /veh EBF3 (11725865_a_at) / RFU CAMK2N1 (11719241_x_at) / Fold change /veh CAMK2N1 (11719241_x_at) / RFU C5orf56 (11738088_a_at) / Fold change /veh C5orf56 (11738088_a_at) / RFU OLFML3 (11715873_a_at) / Fold change /veh OLFML3 (11715873_a_at) / RFU LOC100653217 /// NTM (11731650_a_at) / Fold change /veh LOC100653217 /// NTM (11731650_a_at) / RFU MAPK11 (11762145_a_at) / Fold change /veh MAPK11 (11762145_a_at) / RFU FIZ1 (11724087_x_at) / Fold change /veh FIZ1 (11724087_x_at) / RFU OASL (11726364_x_at) / Fold change /veh OASL (11726364_x_at) / RFU SOX15 (11748057_x_at) / Fold change /veh SOX15 (11748057_x_at) / RFU CD79A (11719716_a_at) / Fold change /veh CD79A (11719716_a_at) / RFU HIST1H1D (11736915_at) / Fold change /veh HIST1H1D (11736915_at) / RFU CASKIN2 (11723855_a_at) / Fold change /veh CASKIN2 (11723855_a_at) / RFU LOC730098 (11760151_x_at) / Fold change /veh LOC730098 (11760151_x_at) / RFU OR4N2 (11742367_at) / Fold change /veh OR4N2 (11742367_at) / RFU PRRT2 (11749266_a_at) / Fold change /veh PRRT2 (11749266_a_at) / RFU SNX32 (11753110_a_at) / Fold change /veh SNX32 (11753110_a_at) / RFU CDHR5 (11726645_a_at) / Fold change /veh CDHR5 (11726645_a_at) / RFU RCAN1 (11760418_a_at) / Fold change /veh RCAN1 (11760418_a_at) / RFU FAM167A (11723789_a_at) / Fold change /veh FAM167A (11723789_a_at) / RFU FAM26E (11764081_at) / Fold change /veh FAM26E (11764081_at) / RFU ISYNA1 (11749810_s_at) / Fold change /veh ISYNA1 (11749810_s_at) / RFU ACY1 (11761880_at) / Fold change /veh ACY1 (11761880_at) / RFU 11764098_at / Fold change /veh 11764098_at / RFU SAMD14 (11745864_x_at) / Fold change /veh SAMD14 (11745864_x_at) / RFU NPB (11741838_a_at) / Fold change /veh NPB (11741838_a_at) / RFU TMPRSS6 (11731388_a_at) / Fold change /veh TMPRSS6 (11731388_a_at) / RFU KRTAP10-2 (11738614_at) / Fold change /veh KRTAP10-2 (11738614_at) / RFU ARHGAP8 /// PRR5-ARHGAP8 (11727945_x_at) / Fold change /veh ARHGAP8 /// PRR5-ARHGAP8 (11727945_x_at) / RFU KRTAP5-7 /// NADSYN1 (11734609_at) / Fold change /veh KRTAP5-7 /// NADSYN1 (11734609_at) / RFU RASL12 (11751679_a_at) / Fold change /veh RASL12 (11751679_a_at) / RFU CDKN2B (11736163_a_at) / Fold change /veh CDKN2B (11736163_a_at) / RFU PRF1 (11729649_at) / Fold change /veh PRF1 (11729649_at) / RFU, ZNF638 /// ZNF638-IT1 / Fold change vs veh, ZNF638 /// ZNF638-IT1 / RFU, PANK3 / Fold change vs veh, PANK3 / RFU, SH3YL1 / Fold change vs veh, SH3YL1 / RFU, ZEB2 / Fold change vs veh, ZEB2 / RFU, NRIP1 / Fold change vs veh, NRIP1 / RFU, PTTG1IP / Fold change vs veh, PTTG1IP / RFU, CAPN2 / Fold change vs veh, CAPN2 / RFU, MED14 / Fold change vs veh, MED14 / RFU, SNORA58 / Fold change vs veh, SNORA58 / RFU, C1orf63 / Fold change vs veh, C1orf63 / RFU, LRRFIP1 / Fold change vs veh, LRRFIP1 / RFU, NDUFAF7 / Fold change vs veh, NDUFAF7 / RFU, SLC12A2 / Fold change vs veh, SLC12A2 / RFU, IBTK / Fold change vs veh, IBTK / RFU, ESF1 / Fold change vs veh, ESF1 / Fold change vs veh, TMEM50B / RFU, TAOK1 / Fold change vs veh, TAOK1 / RFU, ACBD3 / Fold change vs veh, ACBD3 / RFU, TMA16 / Fold change vs veh, TMA16 / RFU, RWDD3 / Fold change vs veh, RWDD3 / RFU, BCAT1 / Fold change vs veh, BCAT1 / RFU, EDEM3 / Fold change vs veh, EDEM3 / RFU, TMEM33 / Fold change vs veh, TMEM33 / RFU, WDR75 / Fold change vs veh, WDR75 / RFU, AHCTF1 / Fold change vs veh, AHCTF1 / RFU, TFRC / Fold change vs veh, TFRC / RFU, ZDHHC17 / Fold change vs veh, ZDHHC17 / RFU, NOM1 / Fold change vs veh, NOM1 / RFU, ARL8B / Fold change vs veh, ARL8B / RFU, ZBTB11 / Fold change vs veh, ZBTB11 / RFU, TAMM41 / Fold change vs veh, TAMM41 / RFU, KIAA1704 /// LOC100996395 / Fold change vs veh, KIAA1704 /// LOC100996395 / RFU, ING1 / Fold change vs veh, ING1 / RFU, TRMT61B / Fold change vs veh, TRMT61B / RFU, FUBP3 / Fold change vs veh, FUBP3 / RFU, TP53 / Fold change vs veh, TP53 / RFU, TNKS2 / Fold change vs veh, TNKS2 / RFU, ZFP14 / Fold change vs veh, ZFP14 / RFU, ACTR2 / Fold change vs veh, ACTR2 / RFU, PPP3R1 / Fold change vs veh, PPP3R1 / RFU, PIK3R1 / Fold change vs veh, PIK3R1 / RFU, HNRNPA1 / Fold change vs veh, HNRNPA1 / RFU, RNF170 / Fold change vs veh, RNF170 / RFU, ZNF28 / Fold change vs veh, ZNF28 / RFU, RNGTT / Fold change vs veh, RNGTT / RFU, OGT / Fold change vs veh, OGT / RFU, BRD1 / Fold change vs veh, BRD1 / RFU, MARS / Fold change vs veh, MARS / RFU, ZNF655 / Fold change vs veh, ZNF655 / RFU, FAHD1 / Fold change vs veh, FAHD1 / RFU, BDP1 / Fold change vs veh, BDP1 / RFU, LRRCC1 / Fold change vs veh, LRRCC1 / RFU, ARID1A / Fold change vs veh, ARID1A / RFU, ZNF146 / Fold change vs veh, ZNF146 / RFU, ZNF330 / Fold change vs veh, ZNF330 / RFU, GPN3 / Fold change vs veh, GPN3 / RFU, C9orf123 / Fold change vs veh, C9orf123 / RFU, N4BP2L2 / Fold change vs veh, N4BP2L2 / RFU, ARFIP1 / Fold change vs veh, ARFIP1 / RFU, FAM179B / Fold change vs veh, FAM179B / RFU, BCL10 / Fold change vs veh, BCL10 / RFU, UHRF1BP1L / Fold change vs veh, UHRF1BP1L / RFU, BET1 / Fold change vs veh, BET1 / RFU, CNOT2 / Fold change vs veh, CNOT2 / RFU, ZNF268 / Fold change vs veh, ZNF268 / Fold change vs veh, ZNF507 / RFU, DGCR2 / Fold change vs veh, DGCR2 / RFU, WDSUB1 / Fold change vs veh, WDSUB1 / Fold change vs veh, HSP90B1 /// MIR3652 / RFU, ADSS / Fold change vs veh, ADSS / RFU, GK / Fold change vs veh, GK / RFU, ZNF148 / Fold change vs veh, ZNF148 / RFU, TAF9 / Fold change vs veh, TAF9 / RFU, SLC1A5 / Fold change vs veh, SLC1A5 / RFU, SLMO2 / Fold change vs veh, SLMO2 / RFU, ABCC4 / Fold change vs veh, ABCC4 / RFU, LOC101060439 /// RAP1B / Fold change vs veh, LOC101060439 /// RAP1B / RFU, RFX7 / Fold change vs veh, RFX7 / RFU, GTPBP10 / Fold change vs veh, GTPBP10 / RFU, CNEP1R1 / Fold change vs veh, CNEP1R1 / RFU, BIVM-ERCC5 /// ERCC5 / Fold change vs veh, BIVM-ERCC5 /// ERCC5 / RFU, ILF3 / Fold change vs veh, ILF3 / RFU 11762660_at / Fold change /veh 11762660_at / RFU VCAN (11757783_s_at) / Fold change /veh VCAN (11757783_s_at) / RFU DDX43 (11728927_at) / Fold change /veh DDX43 (11728927_at) / RFU KRT8 (11758188_x_at) / Fold change /veh KRT8 (11758188_x_at) / RFU NKD1 (11759106_at) / Fold change /veh NKD1 (11759106_at) / RFU SRD5A1 (11742802_a_at) / Fold change /veh SRD5A1 (11742802_a_at) / RFU TPSAB1 /// TPSB2 (11721975_s_at) / Fold change /veh TPSAB1 /// TPSB2 (11721975_s_at) / RFU GSTM3 (11746129_a_at) / Fold change /veh GSTM3 (11746129_a_at) / RFU IL23R (11737362_x_at) / Fold change /veh IL23R (11737362_x_at) / RFU TMEM51 (11727254_a_at) / Fold change /veh TMEM51 (11727254_a_at) / RFU PIWIL2 (11732686_x_at) / Fold change /veh PIWIL2 (11732686_x_at) / RFU ORM1 (11744905_x_at) / Fold change /veh ORM1 (11744905_x_at) / RFU CCDC152 (11743942_at) / Fold change /veh CCDC152 (11743942_at) / RFU ECM1 (11717891_a_at) / Fold change /veh ECM1 (11717891_a_at) / RFU IL23R (11748794_a_at) / Fold change /veh IL23R (11748794_a_at) / RFU TNFAIP8L3 (11732012_x_at) / Fold change /veh TNFAIP8L3 (11732012_x_at) / RFU MBOAT4 (11741988_at) / Fold change /veh MBOAT4 (11741988_at) / RFU 11764193_at / Fold change /veh 11764193_at / RFU TMEM53 (11763286_at) / Fold change /veh TMEM53 (11763286_at) / RFU MAGEB2 (11727129_at) / Fold change /veh MAGEB2 (11727129_at) / RFU TMEM200A (11744735_a_at) / Fold change /veh TMEM200A (11744735_a_at) / RFU CCDC152 (11751479_a_at) / Fold change /veh CCDC152 (11751479_a_at) / RFU FAM211A (11726209_a_at) / Fold change /veh FAM211A (11726209_a_at) / RFU RGS16 (11746705_a_at) / Fold change /veh RGS16 (11746705_a_at) / RFU VCAN (11755009_s_at) / Fold change /veh VCAN (11755009_s_at) / RFU RHOB (11743442_s_at) / Fold change /veh RHOB (11743442_s_at) / RFU RGS16 (11720943_a_at) / Fold change /veh RGS16 (11720943_a_at) / RFU RGS16 (11720944_at) / Fold change /veh RGS16 (11720944_at) / RFU, VPS4B / Fold change vs veh, VPS4B / RFU, CREB1 / Fold change vs veh, CREB1 / RFU, DNAJC13 / Fold change vs veh, DNAJC13 / RFU, GNAQ / Fold change vs veh, GNAQ / RFU, CDK5R1 / Fold change vs veh, CDK5R1 / RFU, ZRANB3 / Fold change vs veh, ZRANB3 / RFU, CUL4A / Fold change vs veh, CUL4A / RFU, CCNY / Fold change vs veh, CCNY / RFU, UFL1 / Fold change vs veh, UFL1 / RFU, COG3 / Fold change vs veh, COG3 / RFU, DIAPH2 / Fold change vs veh, DIAPH2 / RFU, SKA2 / Fold change vs veh, SKA2 / RFU, AFF3 / Fold change vs veh, AFF3 / RFU, LMF1 / Fold change vs veh, LMF1 / RFU, IPO11 / Fold change vs veh, IPO11 / RFU, DFFB / Fold change vs veh, DFFB / RFU, FOXP1 / Fold change vs veh, FOXP1 / RFU, CARD8 / Fold change vs veh, CARD8 / RFU, STRN3 / Fold change vs veh, STRN3 / RFU, ADK / Fold change vs veh, ADK / RFU, RASSF2 / Fold change vs veh, RASSF2 / RFU, WIPF1 / Fold change vs veh, WIPF1 / RFU, LARP1B / Fold change vs veh, LARP1B / RFU, RASA1 / Fold change vs veh, RASA1 / RFU, RB1 / Fold change vs veh, RB1 / RFU, PPFIA1 / Fold change vs veh, PPFIA1 / RFU, MAT2A / Fold change vs veh, MAT2A / RFU, CCT5 / Fold change vs veh, CCT5 / RFU, WDR92 / Fold change vs veh, WDR92 / RFU, CUX1 / Fold change vs veh, CUX1 / RFU, TTC7A / Fold change vs veh, TTC7A / RFU, TMEM135 / Fold change vs veh, TMEM135 / RFU, DEPTOR / Fold change vs veh, DEPTOR / RFU, CPM / Fold change vs veh, CPM / RFU, DNAJB6 / Fold change vs veh, DNAJB6 / RFU, CACNA2D3 / Fold change vs veh, CACNA2D3 / RFU, DTX4 / Fold change vs veh, DTX4 / RFU, TFCP2 / Fold change vs veh, TFCP2 / RFU, GMCL1 /// GMCL1P1 / Fold change vs veh, GMCL1 /// GMCL1P1 / RFU, AEBP2 / Fold change vs veh, AEBP2 / RFU, SNHG1 /// SNORD22 /// SNORD25 /// SNORD26 /// SNORD27 /// SNORD28 /// SNORD29 /// SNORD31 / Fold change vs veh, SNHG1 /// SNORD22 /// SNORD25 /// SNORD26 /// SNORD27 /// SNORD28 /// SNORD29 /// SNORD31 / Fold change (Aza/veh), C12orf56 (ProbeSet 11735607_a_at) / Fold change (ACY-1035/veh), C12orf56 (ProbeSet 11735607_a_at) / Fold change (Aza/veh), FGFR1OP (ProbeSet 11751329_s_at) / Fold change (ACY-1035/veh), FGFR1OP (ProbeSet 11751329_s_at) / Fold change (Aza/veh), VPS36 (ProbeSet 11739960_a_at) / Fold change (ACY-1035/veh), VPS36 (ProbeSet 11739960_a_at) / RFU SYPL1 (11715823_x_at) / Fold change /veh SYPL1 (11715823_x_at) / RFU IGFBP7 (11715501_s_at) / Fold change /veh IGFBP7 (11715501_s_at) / RFU REEP3 (11722064_at) / Fold change /veh REEP3 (11722064_at) / RFU IGLL1 (11728026_x_at) / Fold change /veh IGLL1 (11728026_x_at): dose or concentration left out as unconfirmed. The format is cell-based, human.

For `Nc1ccc(-c2cccs2)cc1NC(=O)c1ccc2c(c1)cc(C1CC1)n2CCN1CCOCC1` [ACY-1035], the “RFU, ZNF638 /// ZNF638-IT1” value is on record as 322.16 RFU.
